What all share (type): cell-based
For experiment [1], the system named is SW480 colon cancer cells. The experiment in a line: Cell viability assay (CellTiter-Blue) in SW480 colon cancer cells. Particulars: Homo sapiens; for EC50: 96 h, SW480 cell viability, four days, CellTiter-Blue; for inhibition at 10 µM: SW480, read-out: percent inhibition at 10 μM. The procedure:
Representative compounds were screened using the following assay procedure to assess the effect on cell viability as described below.
Approximately 2×10^3 SW480 colon cancer cells were seeded into each well and allowed to incubate in the presence or absence of compound for four days at 37° C./5% CO2. Eight replicates of DMSO-treated cells served as controls and cells treated with compound were performed in duplicate.
After incubation, 20 μL of CellTiter-Blue (Promega) was added to each well allowed to incubate for approximately 3 hours. This reagent was a buffered solution which contains resazurin, metabolically active cells were able to reduce rezarurin (blue) into resorufin (pink) which was highly fluorescent. This measured fluorescence was used as a readout for cell viability.
(The colour change of resazurin is a common sign of viable cells or microbes.)

In experiment [2] the test system is Wnt activity (Sp5-Luc reporter, TCF/LEF binding sites) in SW480 colon carcinoma cells. The experiment in a line: Wnt activity screening assay: Sp5-Luc reporter gene assay in SW480 cells. To be noted: Homo sapiens; for EC50: Sp5-Luc reporter, SW480 cells, overnight incubation; for inhibition at 10 µM: SW480, read-out: percent inhibition at 10 μM. An excerpt: The screening assay for Wnt activity is described as follows. Reporter cell lines can be generated by stably transducing cancer cell lines (e.g., colon cancer) or primary cells (e.g., IEC-6 intestinal cells) with a lentiviral construct that includes a Wnt-responsive promoter driving expression of the firefly luciferase gene.
SW480 colon carcinoma cells were transduced with a lentiviral vector expressing luciferase with a human Sp5 promoter consisting of a sequence of eight TCF/LEF binding sites. SW480 cells stably expressing the Sp5-Luc reporter gene and a hygromycin resistance gene were selected by treatment with 150 μg/mL of hygromycin for 7 days. These stably transduced SW480 cells were expanded in cell culture and used for all further screening activities. […] For Sp5-Luc reporter gene assays, the cells were plated at 4,000 cells/well in 384-well plates with medium containing 1% fetal bovine serum and incubated overnight at 37° C. and 5% CO2. Following incubation, 20 μl of BrightGlo luminescence reagent (Promega) was added to each well of the 384-well assay plates. The plates were placed on an orbital shaker for 2 min and then luminescence was quantified using the Envision (Perkin Elmer) plate reader. Readings were normalized to DMSO only treated cells, and normalized activities were utilized for EC50 calculations using the dose-response log (inhibitor) vs. response variable slope (four parameters) nonlinear regression feature available in GraphPad Prism 5.0 (or Dotmatics).
For orientation: A reporter such as luciferase makes a cellular process visible.

Experiment [3] deals with LL29 cells (primary human fibroblasts derived from IPF patients), α-smooth muscle actin. The experiment in a line: Inhibition of the fibrotic process: αSMA staining in TGF-β1 treated primary human fibroblasts from IPF patients (LL29 cells). Particulars: Fibroblast; for EC50: 96 h, LL29 cells, TGF-β1 20 ng/mL, 4 days, % αSMA positive cells. As for the experimental part:
Representative compounds were screened using primary human fibroblasts (derived from IPF patients) treated with TGF-β1 to determine their ability to inhibit the fibrotic process.
LL29 cells are plated at 1,500 cells/well in 80 μL/well F12 medium supplemented with 1% Fetal Bovine Serum. […] Wells treated with TGF-β1 and containing DMSO were used as controls. […] Following incubation for 4 days, SYTOX green nucleic acid stain (Life Technologies [Thermo Fisher Scientific]) was added to the wells at a final concentration of 1 μM and incubated at room temperature for 30 min.

The test system of experiment [4] is IL-6 in THP-1 cells. In words: IL-6 inhibition in LPS-stimulated THP-1 human monocyte cells (HTRF). To be noted: for EC50: IL-6 inhibition, LPS-stimulated THP-1 cells, HTRF, 10-point dose-response starting from 10 μM; for inhibition at 10 µM: THP-1, read-out: percentage in parentheses beside EC50 >10. As for the experimental part:
Compound Screening: THP-1 cells were cultured in basal media with 1% FBS for 24 hours before the start of the assay. […] THP-1 cells were plated at 5000 cells/well in the 384-well plates and incubated at 37° C. for 2 h. 500 ng/mL of LPS was added after 2 hours and cells were incubated for another 22 hours at 37° C. Plates were spun in a centrifuge for 1 minute at […] and a mixture of anti-IL6 XL665, and anti-IL6 Cryptate diluted in reconstitution buffer (Cisbio Inc.) was added to each well. Following incubation for 3 hrs at room temperature, Homogeneous Time-Resolved Fluorescence (HTRF) was measured using the Envision (Perkin Elmer) at 665 nm and […]. The ratio of fluorescence at 665 nm to 620 nm was used as a readout for IL6 quantification. All samples were processed in duplicate. Readings were normalized to DMSO treated cells and normalized activities were utilized for EC50 calculations using the dose-response log (inhibitor) vs. response variable slope (four parameters) nonlinear regression feature available in GraphPad Prism 5.0 (or Dotmatics).

For experiment [5], the system named is primary human mesenchymal stem cells (hMSCs). In words: Induction of chondrogenesis in primary human mesenchymal stem cells (chondrogenic nodules, Rhodamine B / Nile Red). To be noted: 6 days; for Emax: relative to TGF-β3 (10 ng/mL) positive control, read-out: Max. Activity as % TGF-β3 activity. An excerpt:
Representative compounds were screened using primary human mesenchymal stem cells (hMSCs) to determine their ability to induce chondrogenesis (process by which cartilage is developed).
Human Mesenchymal Stem Cell Culture: Primary human mesenchymal stem cells (hMSCs) were purchased from Lonza (Walkersville, Md.) and expanded in Mesenchymal Stem Cell Growth Media (Lonza). Cells between passage 3 and 6 were used for the experiments.
To image chondrogenic nodules, the cells were fixed using 4% formaldehyde (Electron Microscopy Sciences), and stained with 2 μg/mL Rhodamine B (Sigma-Aldrich) and 20 μM Nile Red (Sigma-Aldrich) [Johnson K., et. al, A Stem Cell-Based Approach to Cartilage Repair, Science, (2012). […] Number of nodules in each well was normalized to the average of 3 DMSO treated wells on the same plate using Excel (Microsoft Inc.). The normalized averages (fold change over DMSO) of 3 replicate wells for each compound concentration were calculated. Due to solubility limitations of some of the compounds, curve fitting was incomplete leading to inaccurate EC50 determinations.
Using TGF-β3 as a positive control, the concentration of representative compounds required to induce 50% levels of chondrogenesis is reported. In addition, the maximum activity of each compound and the respective dose that each compound reached maximum chondrogenesis activity is reported.

For `CCNCc1cncc(-c2cnc3[nH]nc(-c4cc5c(-c6ccccc6F)nccc5[nH]4)c3c2)c1` [Compound 62, N-((5-(3-(4-(2-Fluorophenyl)-1H-pyrrolo[3,2-c]pyridin-2-yl)-1H-pyrazolo[3,4-b]pyridin-5-yl)pyridin-3-yl)methyl)ethanamine], the EC50 in experiment [1] was found to be 0.923 µM; in experiment [2] it was 1.08 µM; in experiment [3] it was 2.37 µM; in experiment [4], 1.89 µM. Further, in experiment [5], the Emax came out at 52%.

As for `O=C(Nc1cncc(-c2cnc3[nH]nc(-c4cc5c(-c6ccccc6F)nccc5[nH]4)c3c2)c1)C1CC1` [Compound 76, N-(5-(3-(4-(2-Fluorophenyl)-1H-pyrrolo[3,2-c]pyridin-2-yl)-1H-pyrazolo[3,4-b]pyridin-5-yl)pyridin-3-yl)cyclopropanecarboxamide], the EC50 in experiment [1] amounted to 0.45 µM; in experiment [2], 0.321 µM; in experiment [3] it was 2.7 µM; in experiment [4] it was 0.053 µM; in experiment [5] (concentration required to induce 50% levels of chondrogenesis vs TGF-β3, read-out: Conc (nM) of 50% TGF-β3 activity), 30 nM. Further, in experiment [5], the Emax worked out at 78%.

Consider `CN1CCN(c2nccc3[nH]c(-c4n[nH]c5ncc(-c6cncc(NC(=O)c7ccccc7)c6)cc45)cc23)CC1` [Compound 235, N-(5-(3-(4-(4-Methylpiperazin-1-yl)-1H-pyrrolo[3,2-c]pyridin-2-yl)-1H-pyrazolo[3,4-b]pyridin-5-yl)pyridin-3-yl)benzamide], for which the EC50 was above 10 µM in experiment [1], 3.24 µM in experiment [2], 0.891 µM in experiment [3] and 6.98 µM in experiment [4]. The inhibition at 10 µM in experiment [1] amounted to 19.1%. The Emax in experiment [5] was 63%.

`CN1CCN(c2nccc3[nH]c(-c4n[nH]c5ncc(-c6cncc(NC(=O)C7CCCC7)c6)cc45)cc23)CC1` [Compound 246, N-(5-(3-(4-(4-Methylpiperazin-1-yl)-1H-pyrrolo[3,2-c]pyridin-2-yl)-1H-pyrazolo[3,4-b]pyridin-5-yl)pyridin-3-yl)cyclopentane carboxamide]: the EC50 was above 10 µM in experiment [1], above 10 µM in experiment [2], 6.46 µM in experiment [3] and 2.15 µM in experiment [4]. Besides, the inhibition at 10 µM in experiment [1] was determined as 15.4%; in experiment [2] it was 43%. For the same compound, the Emax in experiment [5] was 30%.

As for `CS(=O)(=O)NCc1cc(F)cc(-c2nccc3[nH]c(-c4n[nH]c5ncc(-c6cncc(CNCc7ccccc7)c6)cc45)cc23)c1` [Compound 500, N-(3-(2-(5-(5-((Benzylamino)methyl)pyridin-3-yl)-1H-pyrazolo[3,4-b]pyridin-3-yl)-1H-pyrrolo[3,2-c]pyridin-4-yl)-5-fluorobenzyl)methanesulfonamide], the EC50 in experiment [1], in experiment [2], in experiment [3] and in experiment [4] was above 10 µM in each case. Further, the inhibition at 10 µM in experiment [1] worked out at 23.4%; in experiment [2], 19.1%; in experiment [3] (read-out: percent inhibition at 10 μM), 18.3%; in experiment [4], 31.3%.

For the compound `Cc1ccncc1-c1cnc2[nH]nc(-c3cc4c(-c5ccc(F)cc5)nccc4[nH]3)c2c1` [Compound 33, 3-(4-(4-Fluorophenyl)-1H-pyrrolo[3,2-c]pyridin-2-yl)-5-(4-methylpyridin-3-yl)-1H-pyrazolo[3,4-b]pyridine], the EC50 in experiment [1] is 1.5 µM; in experiment [2], above 10 µM; in experiment [3] it was 0.553 µM; in experiment [4] it was above 10 µM. For the same compound, the figures for the inhibition at 10 µM in experiment [2] and in experiment [4] were 46.5% and 16.4%, respectively.

Turning to `c1ccc(-c2cnc3[nH]nc(-c4cc5cnccc5[nH]4)c3c2)nc1` [Compound 280, 5-(Pyridin-2-yl)-3-(1H-pyrrolo[3,2-c]pyridin-2-yl)-1H-pyrazolo[3,4-b]pyridine], the EC50 was 1.14 µM in experiment [1], 3.13 µM in experiment [2], 3.87 µM in experiment [3] and 3.69 µM in experiment [4].

Regarding `c1cc2[nH]c(-c3n[nH]c4ncc(-c5cncc(OC6CCCCC6)c5)cc34)cc2c(N2CCCCC2)n1` [Compound 607, 5-(5-(Cyclohexyloxy)pyridin-3-yl)-3-(4-(piperidin-1-yl)-1H-pyrrolo[3,2-c]pyridin-2-yl)-1H-pyrazolo[3,4-b]pyridine], the EC50 was determined as 3.54 µM in experiment [1], 3.98 µM in experiment [2], 1.99 µM in experiment [3] and 7.28 µM in experiment [4].

For `FC1(F)CCN(Cc2cncc(-c3cnc4[nH]nc(-c5cc6c(-c7ccoc7)nccc6[nH]5)c4c3)c2)C1` [Compound 334, 5-(5-((3,3-Difluoropyrrolidin-1-yl)methyl)pyridin-3-yl)-3-(4-(furan-3-yl)-1H-pyrrolo[3,2-c]pyridin-2-yl)-1H-pyrazolo[3,4-b]pyridine], the EC50 in experiment [1] came out at 0.369 µM; in experiment [2], 0.199 µM; in experiment [3] it was 0.912 µM; in experiment [4], 0.102 µM.

Turning to `FC1(F)CCN(Cc2cncc(-c3cnc4[nH]nc(-c5cc6c(-c7ccncc7)nccc6[nH]5)c4c3)c2)C1` [Compound 138, 5-(5-((3,3-Difluoropyrrolidin-1-yl)methyl)pyridin-3-yl)-3-(4-(pyridin-4-yl)-1H-pyrrolo[3,2-c]pyridin-2-yl)-1H-pyrazolo[3,4-b]pyridine], the EC50 in experiment [1] was above 10 µM; in experiment [2], 1.15 µM; in experiment [3], 2.22 µM; in experiment [4] it was 3.63 µM. Further, in experiment [1], the inhibition at 10 µM is 14.3%.

For the compound `CN(C)Cc1cncc(-c2cnc3[nH]nc(-c4cc5c(N6CCCCC6)nccc5[nH]4)c3c2)c1` [Compound 181, N,N-Dimethyl-1-(5-(3-(4-(piperidin-1-yl)-1H-pyrrolo[3,2-c]pyridin-2-yl)-1H-pyrazolo[3,4-b]pyridin-5-yl)pyridin-3-yl)methanamine], the EC50 in experiment [1] is 7.76 µM; in experiment [2] it was above 10 µM; in experiment [3], 9.71 µM; in experiment [4], above 10 µM. For the same compound, the inhibition at 10 µM in experiment [2] is 20.3%; in experiment [4], 41.5%.

With `Cc1ccncc1-c1cnc2[nH]nc(-c3cc4c(-c5cccs5)nccc4[nH]3)c2c1` [Compound 341, 5-(4-Methylpyridin-3-yl)-3-(4-(thiophen-2-yl)-1H-pyrrolo[3,2-c]pyridin-2-yl)-1H-pyrazolo[3,4-b]pyridine], the EC50 in experiment [1] is 1.08 µM; in experiment [2], 1.65 µM; in experiment [3] it was 0.33 µM; in experiment [4], 5.11 µM.

These data come from US10226448B2, “3-(1H-pyrrolo[3,2-C]pyridin-2-yl)-1H-pyrazolo[3,4-B]pyridines and therapeutic uses thereof” (Samumed, LLC, priority 2015, dated 2019).
